The values below come from patent US10155742B2, “Halofuginol derivatives and their use in cosmetic and pharmaceutical compositions” (President and Fellows of Harvard College, priority 2012, dated 2018).

“Also recorded” adds a separate entry of the source. Where two headings read alike, the source gives them in different places.

Assay [1] addresses T1, prolyl tRNA synthetase domain of human EPRS (ProRS) (Homo sapiens, UniProt P07814).
T1 sequence (P07814 998-1512 limits assumed): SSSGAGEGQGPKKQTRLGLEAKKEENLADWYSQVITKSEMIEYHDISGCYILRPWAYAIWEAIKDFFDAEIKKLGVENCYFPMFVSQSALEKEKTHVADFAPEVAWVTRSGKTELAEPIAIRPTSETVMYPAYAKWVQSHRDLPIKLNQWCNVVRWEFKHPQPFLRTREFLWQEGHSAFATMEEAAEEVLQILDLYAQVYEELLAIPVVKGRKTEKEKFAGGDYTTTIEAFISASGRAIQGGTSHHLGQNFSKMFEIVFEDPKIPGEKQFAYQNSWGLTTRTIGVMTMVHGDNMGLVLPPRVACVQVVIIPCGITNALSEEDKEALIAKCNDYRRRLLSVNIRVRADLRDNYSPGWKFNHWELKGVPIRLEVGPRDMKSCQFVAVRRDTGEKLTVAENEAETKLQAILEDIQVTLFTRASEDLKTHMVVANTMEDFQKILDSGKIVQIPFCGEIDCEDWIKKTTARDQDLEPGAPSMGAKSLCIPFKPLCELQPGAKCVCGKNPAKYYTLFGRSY
Procedure: Activity of the Prolyl tRNA synthetase domain of EPRS (ProRS) was measured as ^3H Pro incorporation into the charged tRNA pool. […] Purified enzyme was visualized as a single band by Laemmli gel electrophoresis/Coomassie staining.
Purified enzyme was visualized as a single band by Laemmli gel electrophoresis/Coomassie staining. […] In preliminary experiments, the assay was established to be linear over the time (6 min) and conditions used (30 degrees, 2 mM ATP, 1 μg/μl total tRNA purified from rabbit liver).
For the rapid, quantitative isolation of aminoacylated tRNA^pro from synthetase reaction mixtures, reactions were stopped with 100 μl of ice cold 20 mM MOPS pH6.2, 200 mM NaCl, 10 mM EDTA, 30% Glycerol and placed on ice. Samples were added to 15 μl of packed Mono Q HP beads (GE Healthcare) equilibrated in the same buffer. Samples were incubated with beads on ice for 10 min, beads were pelleted by 5 sec centrifugation in a tabletop microfuge and washed 3× 1 ml of wash buffer (20 mM MOPS pH6.2, 50 mM NaCl), and recovered pellets counted in a liquid scintillation counter. Background binding of ^3H Pro to beads (using reaction mix with either no enzyme added or no tRNA added) was negligible (20-40 cpm).

Assay [2] deals with primary human prostate stromal (hPrSc) cells, s100a4. Nature of the assay: S100A4 mRNA in primary human prostate stromal cells. Type of assay: cell-based. The following applies: with or without TGF 10 ng/ml, FIG. 28. The protocol: Primary human prostate stromal (hPrSc) cells were left in low-serum media (0.2%) for 24 hours, and treated consecutively twice for 48 hours with or without tumor-growth factor beta (TGF; 10 ng/ml), halofuginone (HF) or halofuginol (HFol) at the concentrations indicated. Relative mRNA levels of the fibrosis/tissue invasion marker s100a4 was measured by quantitative real-time PCR using glyceraldehyde-3-phosphate dehydrogenase (GAPDH) as internal control.

The subject of assay [3] is primary human prostate stromal (hPrSc) cells, col1a1. The assay is described as follows: Type I collagen (col1a1) mRNA in primary human prostate stromal cells. The following applies: treated twice for 48 hours, FIG. 27. Type of assay: cell-based. The protocol:
Primary human prostate stromal (hPrSc) cells were left in low-serum media (0.2%) for 24 hours, and treated consecutively twice for 48 hours, halofuginone (HF) or halofuginol (HFol) at the concentrations indicated. Relative mRNA levels of the myofibroblastic markeralpha 1 collagen type 1 (col1a1) was measured by quantitative real-time PCR using glyceraldehyde-3-phosphate dehydrogenase (GAPDH) as internal control.

The next assay has as its system P. falciparum (Dd2). The assay is described as follows: In vitro P. falciparum viability assay with excess proline. Type of assay: cell-based, Plasmodium falciparum. The following applies: Dd2 strain in red blood cells, relative to unmodified RPMI, FIG. 23. How it is done: The activity of halofuginone and amodiaquine as inhibitors of P. falciparum growth was tested in erythrocytes in RPMI with or without excess amino acids as indicated, and IC50 values were normalized to IC50 values obtained under standard conditions using unmodified RPMI (numbers in bold). The absolute IC50 values for halofuginone and amodiaquine for RPMI are reported in parentheses. Fold amino acid indicated (e.g., “5×”) is relative to the concentration of the respective amino acid in RPMI. Fold concentration of D-Pro and L-Orn are relative to L-Pro.
In vitro potency against P. falciparum (DD2) was assessed using a modified version of the method of Plouffe and coworkers (Plouffe et al. Proc. Natl. Acad. Sci. USA 105:9059-64 (2008)). Parasites were cultured in the presence of drug in RPMI (Sigma) containing 4.16 mg/ml Albumax in a total volume of 50 μl at a 2.5% hematocrit and an initial parasitemia of 0.3% in black Greiner GNF clear-bottom plates. Cultures were incubated 72 hr at 37° C. under […], 4% CO2 and 3% O2. At the end of the incubation, SYBR green was added to a dilution of 1:10,000 and plates were stored overnight (or until ready to be read) at −80° C. Just before reading, plates were centrifuged at 700 rpm and fluorescence was read using 480 nm excitation and 530 nm emission frequencies. Compound concentrations that inhibit parasite replication reduce the fluorescence intensity of SYBR green bound to parasite DNA.

The subject of assay [4] is translation in rabbit reticulocyte lysate (RRL). The assay is described as follows: In vitro translation assay in rabbit reticulocyte lysate (RRL). Particulars: for inhibition of translation of luciferase RNA in RRL: luminescence assay, FIG. 2A/2B.
Assay [5] relates to Th17 cell differentiation (primary murine CD4+ CD25- T cells). The assay is described as follows: Th17 differentiation of T cells. Type of assay: cell-based, mouse. The following applies: 6 nM (3 ng/mL) borrelidin, FIG. 19. How it is done: A) Primary murine CD4^+ CD25^− T cells were activated through the T-cell receptor in Th17 polarizing conditions (Sundrud et al. Science 324:1334-8 (2009)) in the presence of either 10 nM MAZ1310 or HF and the following amino acid supplements: 10× concentration of essential (EAA) or non-essential (NEAA) amino acids mixtures (Biowhittaker or Invitrogen, respectively), or 10× concentrations (1 mM) of indicated individual amino acids. Data are presented as mean percentage of Th17 (IL-17+ IFNg−) cells +/−SD from triplicate wells. B) Th17 differentiation was assayed as described above, in the absence or presence of HF or borrelidin, with or without 1 mM threonine or proline supplementation. C) MEFs were treated with or without HF (50 nM) and/or proline (2 mM) for 4 hours (CHOP, S100A4) or 24 hours (ColIA1, Col1A2). mRNA expression was normalized to expression of TBP and is shown relative to untreated control. […] Confidence intervals (p-value) for the effect of HF alone versus HF+Pro were determined using a two-tailed Student's t test. […] D) Cells were pre-incubated for 24 hours with HF and proline as indicated, and secretion of Type I procollagen was measured after 24 hours in conditioned medium of cells plated by Western blot and quantitated using Image J software (top panel). Total protein synthesis was measured as TCA-precipitable ^35S in a scintillation counter (bottom panel). […]

For assay [6], the target named is T2, ProRS (amino acids 998-1513 of human EPRS) (Homo sapiens, UniProt P07814).
T2 construct: Purified 6-his tagged ProRS (amino acids 998-1513 of human EPRS) was immobilized on N-NTA beads; made in house; host or cells: E. coli BL21(DE3), plasmid pKS509
T2 sequence (P07814 998-1512 limits assumed): T1 sequence (P07814 998-1512 limits assumed)
The assay is described as follows: [3H]-HFol binding to immobilized ProRS. The following applies: for inhibition of [3H]-HFol binding to ProRS: FIG. 4A. How it is done: B) [^3H]-HFol binding was assayed as described above in the presence of indicated concentrations of proline. […] IMR90 lung fibroblasts were treated with a siRNAs directed against EPRS (Dharmacon) or a control siRNA mixture for 48 hours, and then treated with HF for 2 hours (pGCN2) and examined for EPRS protein levels, GCN2 total protein and phospho-GCN2 by Western blot. D) EPRS depleted IMR90 cells were compared to control cells with respect to HF induction of the AAR marker CHOP by Q-PCR. Equal concentrations of total cellular protein were loaded in each Western blot lane. CHOP expression was standardized to expression of phosphoglycerate kinase 1 (PGK1) and glyceraldehyde-3-phosphate-dehydrogenase (GAPDH). Data shown are representative of three separate experiments.
Prolyl sulfamoyl adenosine (ProSAd) or alanyl sulfamoyl adenosine (AlaSAd), analogs of the corresponding aminoacyl adenylate, were coincubated with [^3H]-HFol as in FIG. 2. […] Binding of [^3H]-HFol was assayed as in FIG. 3, except that the nucleotide type and concentration was varied as indicated.
To examine HF binding to ProRS, ^3H HFol was synthesized by American Radiochemicals (St. Louis) by reduction of MAZ1310 (3) at the ketone with NaB^3H4, followed by removal of the Boc protecting group with 10% trifluoroacetic acid in dichloromethane, and HPLC purification of the ^3H HFol. 100 nM ^3H HFol was incubated with ProRS immobilized on Ni-NTA beads (Pierce) in 50 mM Tris pH 7.5, 5 mM MgCl2, 20 mM Imidazole, 1 mM DTT, 10% glycerol, and nucleotides, proline, or HF derivatives at room temperature for 10 minutes as indicated. After incubation, beads were washed twice with ice-cold wash buffer (50 mM Tris 7.5; 20 mM Imidazole; 1 mM DTT, 20% glycerol). ^3H HFol bound after washing was measured by liquid scintillation counting. Ni-NTA beads incubated with E. coli extracts lacking tagged ProRS were used as a background reference in all experiments.

Where [7] appears, read: inhibitor 1 μM, anti-myc Western blot, FIG. 2C.

Take `O=c1c2cc(Cl)c(Br)cc2ncn1C[C@H](O)C[C@H]1NCCC[C@@H]1O` [HFolA, halofuginol]: in assay [1] (100 μM Pro, FIG. 13), the “inhibition of ProRS (EPRS) activity” value is “inhibits; also recorded: potency similar to the parent compound”. Also, the “expression of the activated fibroblast marker S100A4” value in assay [2] is reported as “inhibit”. Further, the “Type 1 collagen expression in fibroblasts in culture” value in assay [3] is on record as “inhibit”.
Take `CCN(CC)Cc1cc(Nc2ccnc3cc(Cl)ccc23)ccc1O` [amodiaquine]: the “fold increase of effective IC50 on addition of 5× proline” value in the assay with P. falciparum (Dd2) was “did not affect”.
In the case of `CC(C)(C)OC(=O)N1CCC[C@H](O)[C@H]1CC(=O)Cn1cnc2cc(Br)c(Cl)cc2c1=O` [MAZ1310], the “inhibition of ProRS activity” value in assay [1] (14C Proline used as trace label, FIG. 9) is “does not block; also recorded: no inhibitory effect”. Further, the “inhibition of translation of luciferase RNA in RRL” value (“inhibition of translation … in RRL” below) in assay [4] was “no activity”.
Take `O=C(C[C@@H]1NCCC[C@H]1O)Cn1cnc2cc(Br)c(Cl)cc2c1=O` (single isomer, unassigned) [2S,3R isomer of HF]: the “inhibition of translation … in RRL” value in assay [4] was “no activity”.
`C[C@@H]1C[C@H](C)C[C@H](C)[C@@H](O)CC(=O)O[C@H]([C@@H]2CCC[C@H]2C(=O)O)C/C=C/C=C(/C#N)[C@H](O)[C@@H](C)C1` [borrelidin]: the “inhibition of Th17 cell differentiation” value is recorded as “selectively inhibits” in assay [5] and “inhibited” in assay [5] (listed as Borrelidin).
For `O=c1c2cc(Cl)c(Br)cc2ncn1C[C@@H](O)C[C@H]1NCCC[C@@H]1O` [HFolA, halofuginol], the “inhibition of ProRS activity” value in assay [1] (3H Pro incorporation into tRNA) is on record as “active; also recorded: inhibits; also recorded: potent inhibitor”.
In the case of `C[C@H](N)C(=O)NS(=O)(=O)OC[C@H]1O[C@@H](n2cnc3c(N)ncnc32)[C@H](O)[C@@H]1O` [AlaSAd, alanyl sulfamoyl adenosine], the “inhibition of [3H]-HFol binding to ProRS” value in assay [6] (50 nM competitor) is on record as “partially inhibited”.
For the compound `O=C(C[C@H]1NCCC[C@@H]1O)Cn1cnc2ccccc2c1=O` [FF, febrifugine], the “fold increase of effective IC50 on addition of 5× proline” value with P. falciparum (Dd2) was around 5 fold. Further, in assay [4] (setting [7]), the “translation of Nopropep (proline-free polypeptide)” value is given as “no effect” and the “translation of Propep (proline dipeptide containing polypeptide)” value is “prevent translation”. Also, the “inhibition of translation … in RRL” value in assay [4] is reported as “inhibited”.
Regarding `[3H][C@@](O)(C[C@H]1NCCC[C@@H]1O)Cn1cnc2cc(Br)c(Cl)cc2c1=O` [[^3H]-HFol], the “direct binding to immobilized ProRS” value in assay [6] (5 mM MgCl2, 2 mM ATP, 10 min RT) was “bound directly”.
Regarding `Nc1ncnc2c1ncn2[C@@H]1O[C@H](COS(=O)(=O)NC(=O)[C@@H]2CCCN2)[C@@H](O)[C@H]1O` [ProSAd, 5-O—[N-(L-prolyl)-sulfamoyl]adenosine], the “inhibition of [3H]-HFol binding to ProRS” value in assay [6] (10 nM competitor) is recorded as “inhibited”.
